From US10485795B2, “FXR (NR1H4) binding and activity modulating compounds” (Gilead Sciences, Inc., priority 2011, dated 2019)
Read-outs that look alike come from different tables or passages of the source.

Columns and labels:
[1] = biological target: T1, human FXR alpha ligand binding domain (Homo sapiens, UniProt Q96RI1); test: FRET activity assay (ligand mediated cofactor peptide interaction); assay type: biochemical
T1 construct: made in house; host or cells: E. coli BL21(DE3), vector pDEST15
T1 sequence (Q96RI1 187-472 isoform Q96RI1-2): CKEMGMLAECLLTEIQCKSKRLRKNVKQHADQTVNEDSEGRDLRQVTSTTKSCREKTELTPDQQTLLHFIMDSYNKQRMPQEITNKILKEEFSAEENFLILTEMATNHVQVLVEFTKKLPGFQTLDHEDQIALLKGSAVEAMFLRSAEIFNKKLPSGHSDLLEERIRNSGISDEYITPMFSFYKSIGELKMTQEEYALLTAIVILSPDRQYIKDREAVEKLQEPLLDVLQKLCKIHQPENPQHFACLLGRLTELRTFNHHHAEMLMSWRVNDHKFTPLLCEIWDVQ
Experimental: Determination of a ligand mediated cofactor peptide interaction to quantify ligand binding to the nuclear receptor FXR was performed as follows: Preparation of human FXR alpha ligand binding domain: The human FXRalpha LBD was expressed in E. coli strain BL21(DE3) as an N-terminally GST tagged fusion protein. The DNA encoding the FXR ligand binding domain was cloned into vector pDEST15 (Invitrogen). Expression was under control of an IPTG inducible T7 promoter. The amino acid boundaries of the ligand binding domain were amino acids 187-472 of Database entry NM_005123 (RefSeq). Expression and purification of the FXR-LBD: An overnight preculture of a transformed E. coli strain was diluted 1:20 in LB-Ampicillin medium and grown at 30° C. to an optical density of OD600=0.4-0.6. Gene expression was then induced by addition of 0.5 mM IPTG. Cells were incubated an additional 6 h at 30° C., 180 rpm. Cells were collected by centrifugation (7000×g, 7 min, rt). Per liter of original cell culture, cells were resuspended in 10 mL lysis buffer (50 mM Glucose, 50 mM Tris pH 7.9, 1 mM EDTA and 4 mg/mL lysozyme) and left on ice for 30 min. Cells were then subjected to sonication and cell debris removed via centrifugation (22000×g, 30 min, 4° C.). Per 10 mL of supernatant 0.5 mL prewashed Glutathione 4B sepharose slurry (Qiagen) was added and the suspension kept slowly rotating for 1 h at 4° C. Glutathione 4B sepharose beads were pelleted by centrifugation (2000×g, 15 sec, 4° C.) and washed twice in wash buffer (25 mM Tris, 50 mM KCl, 4 mM MgCl2 and 1M NaCl). The pellet was resuspended in 3 mL elution buffer per liter of original culture (elution buffer: 20 mM Tris, 60 mM KCl, 5 mM MgCl2 and 80 mM glutathione added immediately prior to use as powder). The suspension was left rotating for 15 min at 4° C., the beads pelleted and eluted again with half the volume of elution buffer than the first time. The eluates were pooled and dialysed overnight in 20 mM Hepes buffer (pH 7.5) containing 60 mM KCl, 5 mM MgCl2 as well as 1 mM dithiothreitol and 10% (v/v) glycerol. The protein was analysed by SDS-Page.
The method measures the ability of putative ligands to modulate the interaction between the purified bacterial expressed FXR ligand binding domain (LBD) and a synthetic biotinylated peptide based on residues 676-700 of SRC-1 (LCD2, 676-700). The sequence of the peptide used was B-[…]-COOH where the N-terminus was biotinylated (B). The ligand binding domain (LBD) of FXR was expressed as fusion protein with GST in BL-21 cells using the vector pDEST15. Cells were lysed by sonication, and the fusion proteins purified over glutathione sepharose (Pharmacia) according to the manufacturers instructions. For screening of compounds for their influence on the FXR-peptide interaction, the Perkin Elmer LANCE technology was applied. This method relies on the binding dependent energy transfer from a donor to an acceptor fluorophor attached to the binding partner of interest. For ease of handling and reduction of background from compound fluorescence LANCE technology makes use of generic fluorophore labels and time resolved detection Assays were done in a final volume of 25 μL in a 384 well plate, in a Tris-based buffer (20 mM Tris-HCl pH 7.5; 60 mM KCl, 5 mM MgCl2; 35 ng/μL BSA), containing 20-60 ng/well recombinantly expressed FXR-LBD fused to GST, 200-600 nM N-terminally biotinylated peptide, representing SRC1 aminoacids 676-700, 200 ng/well Streptavidin-xIAPC conjugate (Prozyme) and 6-10 ng/well Eu W1024-antiGST (Perkin Elmer). DMSO content of the samples was kept at 1%. After generation of the assay mix and diluting the potentially FXR modulating ligands, the assay was equilibrated for 1 h in the dark at rt in FIA-plates black 384 well (Greiner). The LANCE signal was detected by a Perkin Elmer VICTOR2VTM Multilabel Counter. The results were visualized by plotting the ratio between the emitted light at 665 and 615 nm. […]

[2] = biological target: T2, FXR ligand binding domain (Homo sapiens, UniProt Q96RI1); test: Mammalian One Hybrid (M1H) assay, Gal4 reporter in HEK293 cells; assay type: cell-based
T2 construct: expressed in transfected cells; host or cells: HEK293 (DSMZ), transient transfection with a pCMV-BD construct
T2 sequence (Q96RI1 187-472 isoform Q96RI1-2): T1 sequence (Q96RI1 187-472 isoform Q96RI1-2)
Experimental: Determination of a ligand mediated Gal4 promoter driven transactivation to quantify ligand binding mediated activation of FXR was performed as follows: The cDNA part encoding the FXR ligand binding domain was cloned into vector pCMV-BD (Stratagene) as a fusion to the yeast GAL4 DNA binding domain under the control of the CMV promoter. […] The plasmid pFR-Luc (Stratagene) was used as the reporter plasmid, containing a synthetic promoter with five tandem repeats of the yeast GAL4 binding sites, driving the expression of the Photinus pyralis (American firefly) luciferase gene as the reporter gene. In order to improve experimental accuracy the plasmid pRL-CMV (Promega) was cotransfected. pRL-CMV contains the constitutive CMV promoter, controlling the expression of the Renilla reniformis luciferase. All Gal4 reporter gene assays were done in HEK293 cells (obtained from DSMZ, Braunschweig, Germany) grown in MEM with L-Glutamine and Earle's BSS supplemented with 10% fetal bovine serum, 0.1 mM nonessential amino acids, 1 mM sodium pyruvate, and 100 units Penicillin/[…] per mL at 37° C. in 5% CO2. Medium and supplements were obtained from Invitrogen. For the assay, […] were plated per well in 96 well plates in 100 μL per well MEM without Phenol Red and L-Glutamine and with Earle's BSS supplemented with 10% charcoal/dextran treated FBS (HyClone, South Logan, Utah), 0.1 mM nonessential amino acids, 2 mM glutamine, 1 mM sodium pyruvate, and 100 units Penicillin/[…] per mL, incubated at 37° C. in 5% CO2. The following day the cells were >90% confluence. […] MEM with the same composition as used for plating cells was added 2-4 h after addition of transfection mixture. Then compound stocks, prediluted in MEM were added (final vehicle concentration not exceeding 0.1%). […] All experiments were done in triplicates.

[3] = FXR-LBD/SRC-1 peptide interaction, LANCE, read-out: EC50 (Group), FRET activity assay
[4] = Gal4-FXR LBD transactivation, HEK293 cells, read-out: EC50 potency range (Group), M1H assay

Structure (SMILES) | EC50 [1, 3] | EC50 [2, 4] | EC50 [1] | EC50 [2]
Cn1nc(C(=O)O)c2ccc(C3CC(O)(c4ccc(OCc5c(-c6c(Cl)cccc6Cl)noc5C5CC5)cc4Cl)C3)cc21 (stereo not shown) [Example 10, 6-(3-(2-Chloro-4-((5-cyclopropyl-3-(2,6-dichlorophenyl)isoxazol-4-yl)methoxy)phenyl)-3-hydroxycyclobutyl)-1-methyl-1H-indazole-3-carboxylic Acid] | < 25 nM | 25 to 100 nM | – | –
NS(=O)(=O)c1cccc(C2CC(O)(c3ccc(OCc4c(-c5c(Cl)cccc5Cl)noc4C4CC4)cc3Cl)C2)c1 (stereo not shown) [Example 5, 3-(3-(2-Chloro-4-((5-cyclopropyl-3-(2,6-dichlorophenyl)isoxazol-4-yl)methoxy)phenyl)-3-hydroxycyclobutyl)benzenesulfonamide] | 25 to 100 nM | > 100 nM | – | –
Cc1cc(C(=O)O)cc(C2CC(O)(c3ccc(OCc4c(-c5c(Cl)cccc5Cl)noc4C4CC4)cc3Cl)C2)c1 (single isomer, unassigned) [13/5] | 25 to 100 nM | < 25 nM | – | –
CC(C)n1nc(C(=O)O)cc1[C@H]1C[C@](O)(c2ccc(OCc3c(-c4c(Cl)cccc4Cl)noc3C3CC3)cc2Cl)C1 [Example 8, 5-((1s,3s)-3-(2-Chloro-4-((5-cyclopropyl-3-(2,6-dichlorophenyl)isoxazol-4-yl)methoxy)phenyl)-3-hydroxycyclobutyl)-1-isopropyl-1H-pyrazole-3-carboxylic Acid] | < 25 nM | 25 to 100 nM | – | –
CC(C)n1nc(C(=O)NCC(=O)O)cc1C1CC(O)(c2ccc(OCc3c(-c4c(Cl)cccc4Cl)noc3C3CC3)cc2Cl)C1 (stereo not shown) [Example 14/1] | < 25 nM | > 100 nM | – | –
CC(C)n1nc(C(=O)NCCS(=O)(=O)O)cc1C1CC(O)(c2ccc(OCc3c(-c4c(Cl)cccc4Cl)noc3C3CC3)cc2Cl)C1 (stereo not shown) [14/2] | < 25 nM | – | – | –
Cc1cc(C2CC(O)(c3ccc(OCc4c(-c5c(Cl)cccc5Cl)noc4C4CC4)cc3Cl)C2)cc(C)c1C(=O)O (single isomer, unassigned) [13/2] | > 100 nM | > 100 nM | – | –
CS(=O)(=O)NC(=O)c1cccc([C@H]2C[C@](O)(c3ccc(OCc4c(-c5c(Cl)cccc5Cl)noc4C4CC4)cc3Cl)C2)c1 [Example 4, 3-((1s,3s)-3-(2-Chloro-4-((5-cyclopropyl-3-(2,6-dichlorophenyl)isoxazol-4-yl)methoxy)phenyl)-3-hydroxycyclobutyl)-N-(methylsulfonyl)benzamide] | < 25 nM | > 100 nM | – | –
O=C(O)c1ccnc(N2CC(O)(c3ccc(OCc4c(-c5c(Cl)cccc5Cl)noc4C4CC4)cc3Cl)C2)c1 (single isomer, unassigned) [13/9] | – | – | < 25 nM | > 100 nM
COc1ccc(C(=O)O)cc1C1CC(O)(c2ccc(OCc3c(-c4c(Cl)cccc4Cl)noc3C3CC3)cc2Cl)C1 (single isomer, unassigned) [13/3] | 25 to 100 nM | 25 to 100 nM | – | –
COC(=O)c1cccc([C@H]2C[C@](O)(c3ccc(OCc4c(-c5c(Cl)cccc5Cl)noc4C4CC4)cc3Cl)C2)c1 [Example 1, Methyl 3-((1s,3s)-3-(2-chloro-4-((5-cyclopropyl-3-(2,6-dichlorophenyl)isoxazol-4-yl)methoxy)phenyl)-3-hydroxycyclobutyl)benzoate] | 25 to 100 nM | > 100 nM | – | –
O=C(O)c1ccc(C2CC(O)(c3ccc(OCc4c(-c5c(Cl)cccc5Cl)noc4C4CC4)cc3Cl)C2)cc1 (single isomer, unassigned) [Example 13/1] | 25 to 100 nM | 25 to 100 nM | – | –
O=C(O)c1cccc(N2CC(O)(c3ccc(OCc4c(-c5c(Cl)cccc5Cl)noc4C4CC4)cc3Cl)C2)c1 (single isomer, unassigned) [13/7] | 25 to 100 nM | 25 to 100 nM | – | –
O=C(O)c1cccc([C@H]2C[C@](O)(c3ccc(OCc4c(-c5c(Cl)cccc5Cl)noc4C4CC4)cc3Cl)C2)c1 [Example 2, 3-((1s,3s)-3-(2-Chloro-4-((5-cyclopropyl-3-(2,6-dichlorophenyl)isoxazol-4-yl)methoxy)phenyl)-3-hydroxycyclobutyl)benzoic Acid] | 25 to 100 nM | 25 to 100 nM | – | –
O=C(O)c1cncc(N2CC(O)(c3ccc(OCc4c(-c5c(Cl)cccc5Cl)noc4C4CC4)cc3Cl)C2)c1 (single isomer, unassigned) [13/8] | < 25 nM | > 100 nM | – | –
CS(=O)(=O)c1cccc(C2CC(O)(c3ccc(OCc4c(-c5c(Cl)cccc5Cl)noc4C4CC4)cc3Cl)C2)c1 (stereo not shown) [Example 6, 1-(2-Chloro-4-((5-cyclopropyl-3-(2,6-dichlorophenyl)isoxazol-4-yl)methoxy)phenyl)-3-(3-(methylsulfonyl)phenyl)cyclobutanol] | 25 to 100 nM | > 100 nM | – | –
Cc1ccc(C2CC(O)(c3ccc(OCc4c(-c5c(Cl)cccc5Cl)noc4C4CC4)cc3Cl)C2)cc1C(=O)O (single isomer, unassigned) [13/6] | > 100 nM | < 25 nM | – | –
CC(C)n1nc(C(=O)O)cc1[C@H]1C[C@@](O)(c2ccc(OCc3c(-c4c(Cl)cccc4Cl)noc3C3CC3)cc2Cl)C1 [Example 8A, 5-((1r,3r)-3-(2-Chloro-4-((5-cyclopropyl-3-(2,6-dichlorophenyl)isoxazol-4-yl)methoxy)phenyl)-3-hydroxycyclobutyl)-1-isopropyl-1H-pyrazole-3-carboxylate] | 25 to 100 nM | 25 to 100 nM | – | –
Cc1ccc(C(=O)O)cc1C1CC(O)(c2ccc(OCc3c(-c4c(Cl)cccc4Cl)noc3C3CC3)cc2Cl)C1 (single isomer, unassigned) [13/4] | 25 to 100 nM | < 25 nM | – | –
